Reference: US20230292752A1, “S[…] COMBINATIONS, COMPOSITIONS AND USE THEREOF” (UPL Corporation Limited, priority 2020, published 2023)

Assays:
Type in all cases: in vivo
Senecio vulgaris SENVU = experiment: Field trial, clethodim and carfentrazone-ethyl, weed control on Senecio vulgaris
Description: (§1) Field trials were performed to evaluate the efficacy of present combination, clethodim and carfentrazone-ethyl on annual grass control and dicot control in perennial crops. • Grass weeds targeted: LOLSS, BROSS, ECHSS, DIGSS, SETS S • Dicot weeds targeted: ERISS, GERSS, Sonchus sp., CONAR, Malva sp (rosette stage when application, prior stem elongation, prior flowering, prior ground cover) • Application volume: 300 L/ha
(§2) Colby's equation was used to determine the herbicidal effects expected from the mixtures. (See Colby, S. R. Calculation of the synergistic and antagonistic response of herbicide combinations. Weeds 1967, 15, 20-22.)
(§3) The following equation was used to calculate the expected activity of mixtures containing two active ingredients, A and B:
(§4) Expected=A+B−(A×B/100) • A=observed efficacy of active component A at the same concentration as used in the mixture; • B=observed efficacy of active component B at the same concentration as used in the mixture. The ability of the compositions described herein to afford suitable weed control is illustrated by the efficacy data in Table 3 to 10
Biological Activity Observed with Synergistic Mixtures of Clethodim and Carfentrazone in Applications on Senecio vulgaris SENVU (n=1) 14 DAA.

[1] = system: Echinochloa crus-galli ECHCG; experiment: Field trial, clethodim and carfentrazone-ethyl, weed control on Echinochloa crus-galli
Description: as §1, §2, §3, §4
Biological Activity Observed with Synergistic Mixtures of Clethodim and Carfentrazone in Applications on Echinochloa crus-galli ECHCG (n=2) 56-59 DAA was represented in table below.

[2] = system: Convolvulus arvensis CONAR; experiment: Field trial, clethodim and carfentrazone-ethyl, weed control on Convolvulus arvensis
Description: as §1, §2, §3, §4
Biological Activity Observed with Synergistic Mixtures of Clethodim and Carfentrazone in Applications on Convolvulus arvensis CONAR (n=2) 14-15 DAA.

Sonchus oleraceus SONOL = experiment: Field trial, clethodim and carfentrazone-ethyl, weed control on Sonchus oleraceus
Description: as §1, §2, §3, §4
Biological Activity Observed with Synergistic Mixtures of Clethodim and Carfentrazone in Applications on Sonchus oleraceus SONOL (n=2) 14-15 DAA

Portulaca oleracea POROL = experiment: Field trial, clethodim and carfentrazone-ethyl, weed control on Portulaca oleracea
Description: as §1, §2, §3, §4
Biological Activity Observed with Synergistic Mixtures of Clethodim and Carfentrazone in Applications on Portulaca oleracea POROL (n=1) 14 DAA.

[3] = system: Digitaria sanguinalis DIGSA; experiment: Field trial, clethodim and carfentrazone-ethyl, weed control on Digitaria sanguinalis
Description: as §1, §2, §3, §4
Biological Activity Observed with Synergistic Mixtures of Clethodim and Carfentrazone (Carfentrazone-ethyl) in Applications on Digitaria sanguinalis DIGSA (n=2) at 56-59 DAA was represented in table below.

Lolium multiflorum LOLMU = experiment: Field trial, clethodim and carfentrazone-ethyl, weed control on Lolium multiflorum
Description: as §1, §2, §3, §4
Biological Activity Observed with Synergistic Mixtures of Clethodim and Carfentrazone in Applications on Lolium multiflorum LOLMU (n=2) 56-59 DAA was represented in table below

Setaria pumila SETPU = experiment: Field trial, clethodim and carfentrazone-ethyl, weed control on Setaria pumila
Description: as §1, §2, §3, §4
Biological Activity Observed with Synergistic Mixtures of Clethodim and Carfentrazone in Applications on Setaria pumila SETPU (n=1) 56-59 DAA was represented in table below

Setaria weeds = experiment: Trial on table grapes, clethodim and pyraflufen-ethyl, Setaria weed control; settings: 28 days after treatment
Description: Clethodim and pyraflufen-ethyl were tested on table grapes as individual applications, premix and tank-mix combinations. The products were formulated as an EC formulation and compared with Glufosinate SC. Effect of the treatment was checked on Setaria weeds at 28 days after treatment.

Green foxtail = experiment: Pot trial, clethodim and pyraflufen-ethyl, green foxtail; settings: 4 DAT
Description: (§5) Pot trials for clethodim, pyraflufen-ethyl and their combination (premix and tan-mix) were carried out against green foxtail, large crabgrass and Bermuda grass

Bermuda grass = experiment: Pot trial, clethodim and pyraflufen-ethyl, Bermuda grass; settings: 4 DAT
Description: as §5

Large crabgrass = experiment: Pot trial, clethodim and pyraflufen-ethyl, large crabgrass; settings: 4 DAT
Description: as §5

[4] = carfentrazone 12 gai/ha, clethodim 0, n=1
[5] = carfentrazone 20 gai/ha, clethodim 0, n=1
[6] = carfentrazone 30 gai/ha, clethodim 0, n=1
[7] = carfentrazone 45 gai/ha, clethodim 0, n=1
[8] = carfentrazone 60 gai/ha, clethodim 0, n=1
[9] = carfentrazone 30 gai/ha, clethodim 0, n=2
[10] = carfentrazone 60 gai/ha, clethodim 0, n=2
[11] = carfentrazone 45 gai/ha, clethodim 0, n=2
[12] = clethodim 72 gai/ha, carfentrazone 0, n=1
[13] = clethodim 120 gai/ha, carfentrazone 0, n=1
[14] = clethodim 180 gai/ha, carfentrazone 0, n=1
[15] = clethodim 120 gai/ha, carfentrazone 0, n=2
[16] = clethodim 180 gai/ha, carfentrazone 0, n=2

What does the source list for CCOC(=O)C(Cl)Cc1cc(-n2nc(C)n(C(F)F)c2=O)c(F)cc1Cl (stereo not shown) [Carfentrazone, Carfentrazone-ethyl]?
Observed Efficacy (O) in % (14 DAA) (Senecio vulgaris SENVU; [4]): 88%; Observed Efficacy (O) in % (14 DAA) (Senecio vulgaris SENVU; [5]): 92%; Observed Efficacy (O) in % (14 DAA) (Senecio vulgaris SENVU; [6]): 97%; Observed Efficacy (O) in % (14 DAA) (Senecio vulgaris SENVU; [7]): 100%; Observed Efficacy (O) in % (14 DAA) (Senecio vulgaris SENVU; [8]): 100%; Observed Efficacy (O) in % (56-59 DAA) [1, 9]: 57%; Observed Efficacy (O) in % (56-59 DAA) [1, 10]: 59%; Observed Efficacy (O) in % (14-15 DAA) ([2]; carfentrazone 12 gai/ha, clethodim 0, n=2): 58%; Observed Efficacy (O) in % (14-15 DAA) [2, 10]: 93%; Observed Efficacy (O) in % (14-15 DAA) (Sonchus oleraceus SONOL; carfentrazone 20 gai/ha, clethodim 0, n=2): 89%; Observed Efficacy (O) in % (14-15 DAA) (Sonchus oleraceus SONOL; [9]): 92%; Observed Efficacy (O) in % (14 DAA) (Portulaca oleracea POROL; [5]): 90%; Observed Efficacy (O) in % (14 DAA) (Portulaca oleracea POROL; [6]): 97%; Observed Efficacy (O) in % (14 DAA) (Portulaca oleracea POROL; [7]): 100%; Observed Efficacy (O) in % (14 DAA) (Portulaca oleracea POROL; [8]): 100%; Observed Efficacy (O) in % (56-59 DAA) [3, 9]: 13%; Observed Efficacy (O) in % (56-59 DAA) [3, 11]: 27%; Observed Efficacy (O) in % (56-59 DAA) [3, 10]: 17%; Observed Efficacy (O) in % (56-59 DAA) (Lolium multiflorum LOLMU; [9]): 50%; Observed Efficacy (O) in % (56-59 DAA) (Lolium multiflorum LOLMU; [11]): 50%; Observed Efficacy (O) in % (56-59 DAA) (Lolium multiflorum LOLMU; [10]): 50%; Observed Efficacy (O) in % (56-59 DAA) (Setaria pumila SETPU; [4]): 0%; Observed Efficacy (O) in % (56-59 DAA) (Setaria pumila SETPU; [5]): 0%; Observed Efficacy (O) in % (56-59 DAA) (Setaria pumila SETPU; [6]): 0%; Observed Efficacy (O) in % (56-59 DAA) (Setaria pumila SETPU; [7]): 0%; Observed Efficacy (O) in % (56-59 DAA) (Setaria pumila SETPU; [8]): 0%

How did the “Weed control % (Observed efficacy)” value (Setaria weeds; 700 g ai/ha) turn out when CP(=O)(O)CCC(N)C(=O)O (stereo not shown) [Glufosinate] was run?
Its value is 85%.

And the “% control (observed)” value (Green foxtail; 350 gai/ha)?
The value was 65%.

And the “% control (observed)” value (Green foxtail; 700 gai/ha)?
The value was 75%.

Which “Weed control % (Observed efficacy)” value (Setaria weeds; 12 g ai/ha, formulated with mineral oil) does the source give for CCOC(=O)COc1cc(-c2nn(C)c(OC(F)F)c2Cl)c(F)cc1Cl [Pyraflufen-ethyl] here?
Its value is 0%.

And the “% control (observed)” value (Bermuda grass; 24 gai/ha)?
The value was 10%.

And the “% control (observed)” value (Green foxtail; 24 gai/ha)?
The value was 20%.

What about the “% control (observed)” value (Large crabgrass; 24 gai/ha) of the same compound?
The value was 10%.

For CCSC(C)CC1CC(=O)C(/C(CC)=N/OC/C=C/Cl)=C(O)C1 (stereo not shown) [Clethodim], which “Observed Efficacy (O) in % (14 DAA)” value (Senecio vulgaris SENVU; [12]) is on record?
The value was 0%.

What about the “Observed Efficacy (O) in % (14 DAA)” value (Senecio vulgaris SENVU; [13]) of the same compound?
The value was 2%.

What about the “Observed Efficacy (O) in % (14 DAA)” value (Senecio vulgaris SENVU; [14]) of the same compound?
Its value is 0%.

And the “Observed Efficacy (O) in % (56-59 DAA)” value [1, 15]?
Its value is 84%.

What about the “Observed Efficacy (O) in % (56-59 DAA)” value [1, 16] of the same compound?
Its value is 97%.

And the “Weed control % (Observed efficacy)” value (Setaria weeds; 125 g ai/ha)?
The value was 85%.

And the “Observed Efficacy (O) in % (14-15 DAA)” value ([2]; clethodim 72 gai/ha, carfentrazone 0, n=2)?
Its value is 8%.

And the “Observed Efficacy (O) in % (14-15 DAA)” value [2, 15]?
The value was 12%.

What about the “Observed Efficacy (O) in % (14-15 DAA)” value [2, 16] of the same compound?
The value was 8%.

And the “% control (observed)” value (Bermuda grass; 250 gai/ha)?
Its value is 20%.

And the “Observed Efficacy (O) in % (14-15 DAA)” value (Sonchus oleraceus SONOL; [15])?
The value was 13%.

And the “Observed Efficacy (O) in % (14 DAA)” value (Portulaca oleracea POROL; [13])?
Its value is 0%.

And the “Observed Efficacy (O) in % (14 DAA)” value (Portulaca oleracea POROL; [14])?
Its value is 0%.

And the “% control (observed)” value (Green foxtail; 250 gai/ha)?
The value was 25%.

What about the “Observed Efficacy (O) in % (56-59 DAA)” value [3, 15] of the same compound?
Its value is 95%.

And the “Observed Efficacy (O) in % (56-59 DAA)” value [3, 16]?
Its value is 97%.

What about the “Observed Efficacy (O) in % (56-59 DAA)” value (Lolium multiflorum LOLMU; [15]) of the same compound?
The value was 52%.

And the “Observed Efficacy (O) in % (56-59 DAA)” value (Lolium multiflorum LOLMU; [16])?
Its value is 74%.

What about the “% control (observed)” value (Large crabgrass; 250 gai/ha) of the same compound?
Its value is 20%.

And the “Observed Efficacy (O) in % (56-59 DAA)” value (Setaria pumila SETPU; [12])?
Its value is 43%.

What about the “Observed Efficacy (O) in % (56-59 DAA)” value (Setaria pumila SETPU; [13]) of the same compound?
Its value is 50%.

What about the “Observed Efficacy (O) in % (56-59 DAA)” value (Setaria pumila SETPU; [14]) of the same compound?
Its value is 94%.
